Test results from patent publication US20100267697A1, “ION CHANNEL MODULATORS” (Wyeth, priority 2006, published 2010).
Where two headings read alike, the source gives them in different places.

Legend:
[1] = target: T1, Cav2.2 (Homo sapiens, UniProt Q00975); assay: HEK assay (whole-cell patch clamp, transiently transfected HEK-293T/17 cells, pulses P1 and P5); type: cell-based; settings: holding potential −100 mV
T1 construct: expressed in transfected cells; host or cells: HEK-293T/17 (transient, FuGENE 6)
T1 sequence (Q00975 whole entry): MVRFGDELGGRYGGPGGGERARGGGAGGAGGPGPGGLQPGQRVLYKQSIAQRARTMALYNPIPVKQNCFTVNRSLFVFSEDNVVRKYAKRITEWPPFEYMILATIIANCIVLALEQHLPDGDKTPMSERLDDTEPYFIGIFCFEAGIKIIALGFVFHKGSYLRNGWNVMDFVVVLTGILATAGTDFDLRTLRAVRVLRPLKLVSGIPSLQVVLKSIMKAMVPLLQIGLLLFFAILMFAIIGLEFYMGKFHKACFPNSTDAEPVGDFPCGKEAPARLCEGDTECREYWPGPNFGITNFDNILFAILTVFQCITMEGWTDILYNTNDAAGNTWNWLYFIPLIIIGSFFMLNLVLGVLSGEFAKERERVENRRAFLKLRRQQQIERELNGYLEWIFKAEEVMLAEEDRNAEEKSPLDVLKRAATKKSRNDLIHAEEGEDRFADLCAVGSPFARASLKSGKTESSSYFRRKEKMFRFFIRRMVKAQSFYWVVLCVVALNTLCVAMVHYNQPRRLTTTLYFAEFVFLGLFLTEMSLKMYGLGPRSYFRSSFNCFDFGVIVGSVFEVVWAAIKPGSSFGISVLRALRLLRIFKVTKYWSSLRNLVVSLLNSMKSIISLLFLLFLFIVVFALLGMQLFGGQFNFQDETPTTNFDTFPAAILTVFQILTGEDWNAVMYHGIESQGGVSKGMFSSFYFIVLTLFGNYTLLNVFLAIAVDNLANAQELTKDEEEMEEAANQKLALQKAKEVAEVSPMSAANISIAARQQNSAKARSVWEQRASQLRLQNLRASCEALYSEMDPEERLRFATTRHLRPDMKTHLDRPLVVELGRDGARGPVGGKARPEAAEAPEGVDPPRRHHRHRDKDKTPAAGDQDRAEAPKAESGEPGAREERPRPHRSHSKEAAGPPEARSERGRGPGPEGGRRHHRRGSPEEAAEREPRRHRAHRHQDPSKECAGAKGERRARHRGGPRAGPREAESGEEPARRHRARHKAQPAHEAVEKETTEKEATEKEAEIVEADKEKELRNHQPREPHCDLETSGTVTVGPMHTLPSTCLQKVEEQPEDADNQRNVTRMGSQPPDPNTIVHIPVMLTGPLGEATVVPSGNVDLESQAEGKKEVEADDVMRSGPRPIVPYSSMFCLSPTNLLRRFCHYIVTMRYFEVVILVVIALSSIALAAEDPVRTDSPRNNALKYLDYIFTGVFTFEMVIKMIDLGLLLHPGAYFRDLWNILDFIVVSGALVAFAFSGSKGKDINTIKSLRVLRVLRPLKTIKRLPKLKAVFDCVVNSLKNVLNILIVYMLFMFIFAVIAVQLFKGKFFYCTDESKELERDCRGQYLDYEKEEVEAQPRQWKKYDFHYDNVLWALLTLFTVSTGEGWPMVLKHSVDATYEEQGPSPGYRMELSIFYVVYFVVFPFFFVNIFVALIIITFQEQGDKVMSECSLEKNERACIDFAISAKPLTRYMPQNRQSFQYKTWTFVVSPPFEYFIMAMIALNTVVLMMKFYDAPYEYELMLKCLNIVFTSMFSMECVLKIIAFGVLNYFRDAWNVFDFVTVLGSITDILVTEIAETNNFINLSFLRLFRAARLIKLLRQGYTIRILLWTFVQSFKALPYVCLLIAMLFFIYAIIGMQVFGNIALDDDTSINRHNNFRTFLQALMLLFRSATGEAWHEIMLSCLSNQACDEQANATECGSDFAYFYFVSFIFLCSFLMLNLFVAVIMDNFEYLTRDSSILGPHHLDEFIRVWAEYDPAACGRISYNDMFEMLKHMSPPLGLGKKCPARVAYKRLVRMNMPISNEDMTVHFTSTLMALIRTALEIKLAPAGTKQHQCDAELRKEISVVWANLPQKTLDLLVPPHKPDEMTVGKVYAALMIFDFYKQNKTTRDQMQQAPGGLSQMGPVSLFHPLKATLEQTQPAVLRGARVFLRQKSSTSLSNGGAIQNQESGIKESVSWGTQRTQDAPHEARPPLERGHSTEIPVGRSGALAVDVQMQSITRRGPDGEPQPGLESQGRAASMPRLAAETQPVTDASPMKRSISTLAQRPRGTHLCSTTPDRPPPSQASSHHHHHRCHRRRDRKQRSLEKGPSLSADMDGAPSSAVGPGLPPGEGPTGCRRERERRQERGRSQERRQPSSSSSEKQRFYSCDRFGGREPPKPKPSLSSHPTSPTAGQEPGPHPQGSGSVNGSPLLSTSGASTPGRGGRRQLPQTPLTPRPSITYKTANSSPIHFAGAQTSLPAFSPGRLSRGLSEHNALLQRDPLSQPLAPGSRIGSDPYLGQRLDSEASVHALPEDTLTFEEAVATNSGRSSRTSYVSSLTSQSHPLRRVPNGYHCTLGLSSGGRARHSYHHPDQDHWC
T1 sequence (P54284 whole entry partner): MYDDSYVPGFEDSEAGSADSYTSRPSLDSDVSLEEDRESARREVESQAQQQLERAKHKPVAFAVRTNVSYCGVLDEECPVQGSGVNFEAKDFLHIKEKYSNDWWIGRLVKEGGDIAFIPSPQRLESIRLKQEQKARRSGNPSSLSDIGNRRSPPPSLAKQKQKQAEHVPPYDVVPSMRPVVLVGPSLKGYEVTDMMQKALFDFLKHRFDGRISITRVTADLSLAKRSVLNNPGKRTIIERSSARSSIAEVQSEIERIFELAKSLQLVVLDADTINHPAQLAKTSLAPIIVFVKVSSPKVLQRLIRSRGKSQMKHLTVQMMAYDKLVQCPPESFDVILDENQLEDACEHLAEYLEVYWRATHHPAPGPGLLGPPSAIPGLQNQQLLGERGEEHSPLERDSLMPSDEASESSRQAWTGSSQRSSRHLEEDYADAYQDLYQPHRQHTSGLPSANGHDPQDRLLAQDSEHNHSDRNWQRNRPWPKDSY
T1 sequence (P54289 25-946 partner limits assumed): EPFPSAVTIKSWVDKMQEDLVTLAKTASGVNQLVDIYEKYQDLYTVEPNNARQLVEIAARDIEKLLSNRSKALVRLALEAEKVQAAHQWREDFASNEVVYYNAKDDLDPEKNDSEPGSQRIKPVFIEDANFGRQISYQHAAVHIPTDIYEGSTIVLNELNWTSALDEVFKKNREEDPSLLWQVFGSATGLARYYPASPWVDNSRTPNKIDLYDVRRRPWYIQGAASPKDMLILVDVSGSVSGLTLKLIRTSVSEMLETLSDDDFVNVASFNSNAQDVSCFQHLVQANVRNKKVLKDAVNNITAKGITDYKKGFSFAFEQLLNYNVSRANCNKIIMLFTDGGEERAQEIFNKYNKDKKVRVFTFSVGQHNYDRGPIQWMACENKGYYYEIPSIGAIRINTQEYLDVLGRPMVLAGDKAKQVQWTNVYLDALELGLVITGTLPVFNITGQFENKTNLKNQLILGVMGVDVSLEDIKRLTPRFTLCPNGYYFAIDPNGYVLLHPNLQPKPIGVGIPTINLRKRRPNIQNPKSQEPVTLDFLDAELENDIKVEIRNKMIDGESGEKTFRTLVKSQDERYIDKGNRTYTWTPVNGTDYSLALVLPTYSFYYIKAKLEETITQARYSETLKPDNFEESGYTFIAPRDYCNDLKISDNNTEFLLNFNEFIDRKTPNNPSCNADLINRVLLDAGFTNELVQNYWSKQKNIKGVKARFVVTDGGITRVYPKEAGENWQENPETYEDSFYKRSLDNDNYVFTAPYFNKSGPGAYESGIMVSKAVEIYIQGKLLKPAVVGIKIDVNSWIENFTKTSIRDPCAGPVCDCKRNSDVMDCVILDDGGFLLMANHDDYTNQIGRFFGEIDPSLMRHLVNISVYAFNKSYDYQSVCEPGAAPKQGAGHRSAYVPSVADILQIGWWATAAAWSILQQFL
T1 sequence (P54289 947-1103 partner limits assumed): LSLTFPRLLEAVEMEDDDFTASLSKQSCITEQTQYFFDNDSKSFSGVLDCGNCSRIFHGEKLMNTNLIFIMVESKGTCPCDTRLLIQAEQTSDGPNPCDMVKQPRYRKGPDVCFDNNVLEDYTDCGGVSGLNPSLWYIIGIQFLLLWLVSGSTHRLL
Summary of the method: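 Whole-cell voltage clamp of HEK-293T/17 cells transiently transfected via FuGENE 6, then grown 24 h in 1% serum before recording. From −100 mV holding, trains of five 20–30 ms steps to about +10 mV at 5 Hz, repeated every 30 s; steady-state IC50s taken at first (P1) and fifth (P5) pulses to gauge use-dependent block.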

[2] = target: Cav2.2 (UniProt Q02294); assay: Oocyte assay (Xenopus oocyte heterologous expression, current at fifth pulse P5); type: cell-based; settings: Xenopus oocytes; fifth pulse (P5) of 5 Hz train, holding potential −100 mV
Procedure: The assay was performed on various calcium channels (e.g., Cav2.2 subfamily) whereby the modulation of the calcium channel was measured for each tested compound.

[3] = fifth pulse (P5) of 5 Hz train, read-out: HEK Cav2.2 P5 IC50
[4] = first pulse (P1) of 5 Hz train, read-out: HEK Cav2.2 P1 IC50

IC50 [1, 3]	IC50 [1, 4]	IC50 [2]	SMILES
1.1 µM	4.6 µM	5.2 µM	CN(CCc1cccnc1)c1ccc(CN(C(=O)C(C)(C)C)c2ccc(F)cc2)cn1 [Compound 27, N-(4-Fluorophenyl)-2,2-dimethyl-N-{6-[methyl-(2-pyridin-3-yl-ethyl)-amino]-pyridin-3-ylmethyl}-propionamide]
1 µM	5.2 µM	8.7 µM	CN(CCOc1ccccn1)c1ccc(CN(C(=O)C(C)(C)C)c2ccc(F)cc2)cn1 [Compound 29, N-(4-Fluorophenyl)-2,2-dimethyl-N-(6-{methyl-[2-(pyridin-2-yloxy)-ethyl]-amino}-pyridin-3-ylmethyl)-propanamide]
2.7 µM	18.9 µM	23.6 µM	CC(C)c1ccccc1N(Cc1ccc(N2CCN(C)CC2)nc1)C(=O)C(C)(C)C [Compound 30, N-(2-Isopropyl-phenyl)-2,2-dimethyl-N-[6-(4-methyl-piperazin-1-yl)-pyridin-3-ylmethyl]-propionamide]
1.3 µM	5.5 µM	6.6 µM	CCN(CC)c1ccc(CN(C(=O)C(C)(C)CC)c2ccc(F)cc2)cn1 [Compound 31, N-(6-Diethylamino-pyridin-3-ylmethyl)-N-(4-fluorophenyl)-2,2-dimethyl-butyramide]
2.6 µM	24.5 µM	21.2 µM	Cc1cc(C)cc(N(Cc2ccc(N3CCN(C)CC3)nc2)C(=O)C(C)(C)C)c1 [Compound 32, N-(3,5-dimethylphenyl)-2,2-dimethyl-N-[6-(4-methyl-piperazin-1-yl)-pyridin-3-ylmethyl]-propionamide]
11.5 µM	37.6 µM	22.9 µM	CC(C)(C)C(=O)N(Cc1ccc(N2CCC(N3CCOCC3)CC2)nc1)c1ccc(F)cc1 [Compound 33, N-(4-Fluorophenyl)-2,2-dimethyl-N-(4-morpholin-4-yl-3,4,5,6-tetrahydro-2H-[1,2′]bipyridinyl-5′-ylmethyl)-propionamide]
2.4 µM	5.5 µM	19.6 µM	CC(C)(C)C(=O)N(Cc1ccc(N2CCC(N3CCCC3)CC2)nc1)c1ccc(F)cc1 [Compound 34, N-(4-Fluorophenyl)-2,2-dimethyl-N-(4-pyrrolidin-1-yl-3,4,5,6-tetrahydro-2H-[1,2′]bipyridinyl-5′-ylmethyl)-propionamide]
1.4 µM	4.4 µM	13.2 µM	CCC(C)(C)C(=O)N(Cc1ccc(N2CCN(C)CC2)nc1)c1ccccc1C(C)C [Compound 35, N-(2-Isopropyl-phenyl)-2,2-dimethyl-N-[6-(4-methyl-piperazin-1-yl)-pyridin-3-ylmethyl]-butyramide]
2.4 µM	6 µM	18.3 µM	CCN(CC)c1nc(CN(C(=O)C(C)(C)C)c2ccc(F)cc2)cs1 [Compound 64, N-(2-Diethylamino-thiazol-4-ylmethyl)-N-(4-fluorophenyl)-2,2-dimethyl-propionamide]
1.9 µM	12.1 µM	9.8 µM	CC(C)(C)C(=O)N(Cc1ccc(N2CCCCC2)nc1)c1ccc(F)cc1 [Compound 70, N-(4-Fluorophenyl)-2,2-dimethyl-N-(3,4,5,6-tetrahydro-2H-[1,2′]bipyridinyl-5′-ylmethyl)-propionamide]
0.6 µM	2 µM	1.7 µM	CN(C)c1ccc(N(Cc2csc(N(C)c3ccc(F)cc3)n2)C(=O)C(C)(C)C)cc1 [Compound 81, N-(4-Dimethylamino-phenyl)-N-{2-[(4-fluorophenyl)-methyl-amino]-thiazol-4-ylmethyl}-2,2-dimethyl-propionamide]
1 µM	3.3 µM	7.1 µM	CCN(c1nc(CN(C(=O)C(C)(C)C)c2ccc(F)cc2)cs1)C1CC1 [Compound 83, N-[2-(Cyclopropyl(ethyl)amino)-thiazol-4-ylmethyl]-N-(4-fluorophenyl)-2,2-dimethyl-propionamide]
1.2 µM	4.3 µM	15.6 µM	CCN(CC)c1ncc(CN(C(=O)C(C)(C)C)c2ccc(F)cc2)cn1 [Compound 84, N-(2-Diethylamino-pyrimidin-5-ylmethyl)-N-(4-fluorophenyl)-2,2-dimethyl-propionamide]
1.9 µM	7.4 µM	16.2 µM	CN(C)c1ccc(N(Cc2cnc(N3CCCCC3)nc2)C(=O)C(C)(C)C)cc1 [Compound 85, N-(4-Dimethylamino-phenyl)-2,2-dimethyl-N-(2-piperidin-1-yl-pyrimidin-5-ylmethyl)-propionamide]
0.4 µM	0.8 µM	22.8 µM	CN(c1ccccn1)c1nc(CN(C(=O)C(C)(C)C)c2ccc(F)cc2)cs1 [Compound 93, N-(4-Fluorophenyl)-2,2-dimethyl-N-[2-(methyl-pyridin-2-yl-amino)-thiazol-4-ylmethyl]-propionamide]
2.5 µM	14.1 µM	22 µM	CN1CCN(c2ccc(CN(C(=O)C3CCCCC3)c3ccc(F)cc3)cn2)CC1 [Compound 104, Cyclohexanecarboxylic acid (4-fluorophenyl)-[6-(4-methyl-piperazin-1-yl)-pyridin-3-ylmethyl]-amide]
2.1 µM	18.6 µM	23.2 µM	O=C(C1CCOC1)N(Cc1ccc(N2CCN(c3ccccn3)CC2)nc1)c1ccc(F)cc1 (stereo not drawn) [Compound 111, Tetrahydro-furan-3-carboxylic acid (4-fluorophenyl)-[6-(4-pyridin-2-yl-piperazin-1-yl)-pyridin-3-ylmethyl]-amide]
